Reference: ChEMBL document CHEMBL4017483, “Potent and selective oxytocin receptor agonists without disulfide bridges” (Bioorg Med Chem Lett, 2017)
Numbered stars: 1 amine (or outer) side, 2 acyl side, 3 side chain; on linkers, the order of the positions; unused ones are H or OH. Bridge positions count the residues as written; N and C are the ends. Square brackets hold non-standard residues; d marks the D form. Peptide text beside a SMILES is read from it. Hyp = O=C(O)[C@@H]1C[C@@H](O)CN1; NMeS = CN[C@@H](CO)C(=O)O; X1 = O=C(CCC[*:2])[*:1]; βAla = NCCC(=O)O; Mpa = O=C(O)CCS; Sar = CNCC(=O)O

What was measured:
[1] = organism: Homo sapiens; test: Selectivity ratio of EC50 for human V1b receptor to EC50 for human OTR
[2] = molecular target: Vasopressin V1a receptor (Homo sapiens, UniProt P37288); test: Agonist activity at human V1a receptor expressed in CHO cells assessed as calcium mobilization measured after 30 mins by Fluo-4-AM dye based FLIPR assay; format: cell-based
Sequence of Vasopressin V1a receptor (P37288 whole entry): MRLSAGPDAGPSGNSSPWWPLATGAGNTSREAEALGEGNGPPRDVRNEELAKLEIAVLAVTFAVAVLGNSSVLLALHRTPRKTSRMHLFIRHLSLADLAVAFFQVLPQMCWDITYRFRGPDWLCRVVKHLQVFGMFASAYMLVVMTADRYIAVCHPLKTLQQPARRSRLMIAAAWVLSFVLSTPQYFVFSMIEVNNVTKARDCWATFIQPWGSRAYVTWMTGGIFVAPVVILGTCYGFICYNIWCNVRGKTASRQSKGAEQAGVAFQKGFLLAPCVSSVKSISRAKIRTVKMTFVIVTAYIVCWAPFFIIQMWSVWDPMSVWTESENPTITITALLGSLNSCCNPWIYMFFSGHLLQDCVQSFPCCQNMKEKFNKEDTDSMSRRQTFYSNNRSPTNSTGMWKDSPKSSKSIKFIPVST

[3] = molecular target: T1, Vasopressin V1b receptor (Homo sapiens, UniProt P47901); test: Agonist activity at human V1b receptor expressed in CHO cells assessed as calcium mobilization measured after 30 mins by Fluo-4-AM dye based FLIPR assay; format: cell-based
T1 sequence (P47901 whole entry): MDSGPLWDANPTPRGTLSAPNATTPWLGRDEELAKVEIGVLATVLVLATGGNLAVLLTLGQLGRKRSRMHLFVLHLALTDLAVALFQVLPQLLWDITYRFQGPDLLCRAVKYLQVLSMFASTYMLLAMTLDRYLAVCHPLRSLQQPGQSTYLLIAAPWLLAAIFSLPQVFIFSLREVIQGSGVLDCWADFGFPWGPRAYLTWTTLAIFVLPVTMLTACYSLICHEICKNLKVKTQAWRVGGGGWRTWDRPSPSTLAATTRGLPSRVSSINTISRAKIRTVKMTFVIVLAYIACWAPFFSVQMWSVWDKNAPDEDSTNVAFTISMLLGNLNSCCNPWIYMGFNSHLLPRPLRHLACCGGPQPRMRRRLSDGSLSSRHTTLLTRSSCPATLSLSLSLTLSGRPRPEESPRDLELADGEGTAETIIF

[4] = organism: Homo sapiens; test: Selectivity ratio of EC50 for human V1a receptor to EC50 for human OTR
[5] = molecular target: T2, Oxytocin receptor (Homo sapiens, UniProt P30559); test: Agonist activity at human OTR expressed in CHO cells assessed as calcium mobilization measured after 30 mins by Fluo-4-AM dye based FLIPR assay; format: functional, cell-based
T2 sequence (P30559 whole entry): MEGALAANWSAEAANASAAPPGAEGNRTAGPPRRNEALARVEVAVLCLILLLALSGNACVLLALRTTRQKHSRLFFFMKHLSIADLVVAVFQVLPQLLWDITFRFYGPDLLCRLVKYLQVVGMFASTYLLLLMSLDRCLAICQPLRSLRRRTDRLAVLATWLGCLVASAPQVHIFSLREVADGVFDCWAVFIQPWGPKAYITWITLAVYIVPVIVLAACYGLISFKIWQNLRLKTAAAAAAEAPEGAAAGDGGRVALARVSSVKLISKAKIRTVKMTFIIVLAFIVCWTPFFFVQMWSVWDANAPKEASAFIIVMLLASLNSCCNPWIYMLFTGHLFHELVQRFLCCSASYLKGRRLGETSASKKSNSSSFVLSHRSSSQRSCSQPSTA

SMILES	Ratio EC50 [1]	EC50 [2] [nM]	EC50 [3] [nM]	Ratio EC50 [4]	EC50 [5] [nM]
CC[C@H](C)[C@@H]1NC(=O)[C@H](Cc2ccc(O)cc2)NC(=O)CCSSC[C@@H](C(=O)N[C@@H](C)C(=O)N[C@@H](CC(C)C)C(=O)NCC(N)=O)NC(=O)[C@H](CC(N)=O)NC(=O)[C@H](CCC(N)=O)NC1=O ([Mpa]YIQNCALG-NH2; disulfide 1-6)	> 1000	> 100	> 100	> 1000	0.07
CC[C@H](C)[C@@H]1NC(=O)[C@H](Cc2ccc(O)cc2)NC(=O)CCSSC[C@@H](C(=O)N2CCC[C@H]2C(=O)N[C@@H](CC(C)C)C(=O)NNC(N)=O)NC(=O)[C@H](CC(N)=O)NC(=O)[C@H](CCC(N)=O)NC1=O	970	70	7.3	9300	0.0075
CC(C)C[C@H](NC(=O)[C@@H]1CCCN1C(=O)[C@@H]1CSSCCC(=O)N[C@@H](Cc2ccc(O)cc2)C(=O)N[C@@H](CO)C(=O)N[C@@H](CCC(N)=O)C(=O)N[C@@H](CC(N)=O)C(=O)N1)C(=O)NCC(N)=O ([Mpa]YSQNCPLG-NH2; disulfide 1-6)	> 2	> 100	> 100	> 2	40
CC[C@H](C)[C@@H]1NC(=O)[C@H](Cc2ccc(O)cc2)NC(=O)CCSSC[C@@H](C(=O)N2CCC[C@H]2C(=O)N[C@@H](CC(C)C)C(=O)NCC(N)=O)NC(=O)[C@H](CC(N)=O)NC(=O)[C@H](CCCNC(=N)N)NC1=O ([Mpa]YIRNCPLG-NH2; disulfide 1-6)	7.5	> 100	9	> 10	1.2
CC[C@H](C)[C@@H]1NC(=O)[C@H](Cc2ccc(O)cc2)NC(=O)CCSSC[C@@H](C(=O)N2CCCCC2C(=O)N[C@@H](CC(C)C)C(=O)NCC(N)=O)NC(=O)[C@H](CC(N)=O)NC(=O)[C@H](CCC(N)=O)NC1=O (stereo not given in full)	310	> 100	4	> 1000	0.013
CC[C@H](C)[C@@H]1NC(=O)[C@H](Cc2ccc(O)cc2)NC(=O)CCSSC[C@@H](C(=O)N2CCC[C@H]2C(=O)N[C@@H](CC2CCCCC2)C(=O)NCC(N)=O)NC(=O)[C@H](CC(N)=O)NC(=O)[C@H](CCC(N)=O)NC1=O	140	> 100	1.4	> 1000	0.01
CC[C@H](C)[C@@H]1NC(=O)[C@H](Cc2ccc(O)cc2)NC(=O)CCSSC[C@@H](C(=O)N2CCC[C@H]2C(=O)N[C@@H](CC(C)(C)C)C(=O)NCC(N)=O)NC(=O)[C@H](CC(N)=O)NC(=O)[C@H](CCC(N)=O)NC1=O	> 10000	> 100	> 100	> 10000	0.0086
CC[C@H](C)[C@@H]1NC(=O)[C@H](Cc2ccc(O)cc2)NC(=O)CCSSC[C@@H](C(=O)N2C[C@@H](O)C[C@H]2C(=O)N[C@@H](CC(C)C)C(=O)NCC(N)=O)NC(=O)[C@H](CC(N)=O)NC(=O)[C@H](CCC(N)=O)NC1=O	1200	> 100	8.2	> 10000	0.007
CC[C@H](C)[C@@H]1NC(=O)[C@H](Cc2ccc(O)cc2)NC(=O)CCCSC[C@@H](C(=O)N2CCC[C@H]2C(=O)N[C@@H](CC(C)C)C(=O)NCC(N)=O)NC(=O)[C@H](CC(N)=O)NC(=O)[C@H](CCC(N)=O)NC1=O (YIQNCPLG-NH2; linker N-5 via X1)	970	45	6.5	6700	0.0067
CC[C@H](C)[C@@H]1NC(=O)[C@H](Cc2ccc(O)cc2)NC(=O)CCSSC[C@@H](C(=O)N2CCC[C@H]2C(=O)N[C@@H](CC(C)C)C(=O)N[C@@H](Cc2ccccc2)C(N)=O)NC(=O)[C@H](CC(N)=O)NC(=O)[C@H](CCC(N)=O)NC1=O ([Mpa]YIQNCPLF-NH2; disulfide 1-6)	> 10	> 100	> 100	> 10	1.6
CC[C@H](C)[C@@H]1NC(=O)[C@H](Cc2ccc(O)cc2)NC(=O)CCSSC[C@@H](C(=O)N2CCC[C@H]2C(=O)N[C@@H](C)C(=O)NCC(N)=O)NC(=O)[C@H](CC(N)=O)NC(=O)[C@H](CCC(N)=O)NC1=O ([Mpa]YIQNCPAG-NH2; disulfide 1-6)	8.1	4.2	0.17	200	0.021
CC[C@H](C)[C@@H]1NC(=O)[C@H](Cc2ccc(O)cc2)NC(=O)CCSSC[C@@H](C(=O)N(C)[C@@H](CO)C(=O)N[C@@H](CC(C)C)C(=O)NCC(N)=O)NC(=O)[C@H](CC(N)=O)NC(=O)[C@H](CCC(N)=O)NC1=O ([Mpa]YIQNC[NMeS]LG-NH2; disulfide 1-6)	> 1000	> 100	> 100	> 1000	0.042
CC[C@H](C)[C@@H]1NC(=O)[C@H](Cc2ccc(O)cc2)NC(=O)CCSSC[C@@H](C(=O)N2CCC[C@H]2C(=O)N[C@@H](CCCNC(=N)N)C(=O)NCC(N)=O)NC(=O)[C@H](CC(N)=O)NC(=O)[C@H](CCC(N)=O)NC1=O ([Mpa]YIQNCPRG-NH2; disulfide 1-6)	1.1	0.12	0.034	4	0.03
CC[C@H](C)[C@@H]1NC(=O)[C@H](Cc2ccc(O)cc2)NC(=O)CCSSC[C@@H](C(=O)N[C@@H](CC(C)C)C(=O)N[C@@H](CC(C)C)C(=O)NCC(N)=O)NC(=O)[C@H](CC(N)=O)NC(=O)[C@H](CCC(N)=O)NC1=O ([Mpa]YIQNCLLG-NH2; disulfide 1-6)	> 10	> 100	> 100	> 10	3.4
CC[C@H](C)[C@@H]1NC(=O)[C@H](Cc2ccc(O)cc2)NC(=O)CCSSC[C@@H](C(=O)N2CCC[C@H]2C(=O)N[C@@H](CC(C)C)C(=O)NCC(N)=O)NC(=O)[C@H](CC(N)=O)NC(=O)[C@H](CC(C)C)NC1=O ([Mpa]YILNCPLG-NH2; disulfide 1-6)	29	> 100	23	> 100	0.78
CC[C@H](C)[C@@H]1NC(=O)[C@H](Cc2ccc(O)cc2)NC(=O)CCSSC[C@@H](C(=O)N(C)CC(=O)N[C@@H](CC(C)C)C(=O)NCC(N)=O)NC(=O)[C@H](CC(N)=O)NC(=O)[C@H](CCC(N)=O)NC1=O ([Mpa]YIQNC[Sar]LG-NH2; disulfide 1-6)	> 10000	> 100	> 100	> 10000	0.0069
CC[C@H](C)[C@@H]1NC(=O)[C@H](Cc2ccc(O)cc2)NC(=O)CCNC(=O)C[C@@H](C(=O)N2CCC[C@H]2C(=O)N[C@@H](CC(C)C)C(=O)NCC(N)=O)NC(=O)[C@H](CC(N)=O)NC(=O)[C@H](CCC(N)=O)NC1=O ([βAla]YIQNDPLG-NH2; lactam N-6)	> 7.7	> 100	> 100	> 7.7	13
CC[C@H](C)[C@@H]1NC(=O)[C@H](Cc2ccc(O)cc2)NC(=O)CCSSC[C@@H](C(=O)N2CCC[C@H]2C(=O)N[C@@H](CC(C)C)C(=O)NCC(N)=O)NC(=O)[C@H](C)NC(=O)[C@H](CCC(N)=O)NC1=O ([Mpa]YIQACPLG-NH2; disulfide 1-6)	> 5	> 100	> 100	> 5	17
CC[C@H](C)[C@@H]1NC(=O)[C@H](Cc2ccc(O)cc2)NC(=O)CCSSC[C@@H](C(=O)NCC(=O)N[C@@H](CC(C)C)C(=O)NCC(N)=O)NC(=O)[C@H](CC(N)=O)NC(=O)[C@H](CCC(N)=O)NC1=O ([Mpa]YIQNCGLG-NH2; disulfide 1-6)	> 1000	> 100	> 100	> 1000	0.013
CC(C)C[C@H](NC(=O)[C@@H]1CCCN1C(=O)[C@@H]1CSSCCC(=O)N[C@@H](Cc2ccc(O)cc2)C(=O)N[C@@H](C)C(=O)N[C@@H](CCC(N)=O)C(=O)N[C@@H](CC(N)=O)C(=O)N1)C(=O)NCC(N)=O ([Mpa]YAQNCPLG-NH2; disulfide 1-6)	> 10	> 100	> 100	> 10	4.4
CC[C@H](C)[C@@H]1NC(=O)[C@H](Cc2ccc(O)cc2)NC(=O)CCCSC[C@@H](C(=O)N2C[C@H](O)C[C@H]2C(=O)N[C@@H](CC(C)C)C(=O)NCC(N)=O)NC(=O)[C@H](CC(N)=O)NC(=O)[C@H](CCC(N)=O)NC1=O (YIQNC[Hyp]LG-NH2; linker N-5 via X1)	> 10000	> 100	> 100	> 10000	0.0055
S	> 100	> 100	> 100	> 100	0.12
